The NIST ThermoML archive (doi:10.1021/je060271a)
Numbers after ± are expanded uncertainties.

Details: 343.15 K, Liquid, Vibrating tube method

`CCCCCC(=O)OCC(COC(=O)CCCCC)(COC(=O)CCCCC)COC(=O)CCCCC` [pentaerythritol tetrahexanoate] showed a mass density (5696.7 kPa) of 961.3 ± 1.2 kg/m3, a mass density (5737.4 kPa) of 961.4 ± 1.2 kg/m3 and a mass density (5771.4 kPa) of 961.4 ± 1.2 kg/m3. It also gave a mass density (5805.5 kPa) of 961.6 ± 1.2 kg/m3, a mass density (5839.7 kPa) of 961.6 ± 1.2 kg/m3 and a mass density (5880 kPa) of 961.6 ± 1.2 kg/m3. It also gave a mass density (5913.7 kPa) of 961.6 ± 1.2 kg/m3, a mass density (5948.1 kPa) of 961.5 ± 1.2 kg/m3 and a mass density (5988.1 kPa) of 961.6 ± 1.2 kg/m3. It also gave a mass density (6021.6 kPa) of 961.7 ± 1.2 kg/m3, a mass density (6055.8 kPa) of 961.8 ± 1.2 kg/m3 and a mass density (6095.9 kPa) of 961.7 ± 1.2 kg/m3. It also gave a mass density (6130 kPa) of 961.7 ± 1.2 kg/m3, a mass density (6163.7 kPa) of 961.6 ± 1.2 kg/m3 and a mass density (6303.4 kPa) of 962.1 ± 1.2 kg/m3. The mass density (6343 kPa) was 961.7 ± 1.2 kg/m3, the mass density (6375.6 kPa) was 961.9 ± 1.2 kg/m3 and the mass density (6408.1 kPa) was 961.9 ± 1.2 kg/m3. The mass density (6440.4 kPa) was 961.9 ± 1.2 kg/m3, the mass density (6478.6 kPa) was 962.1 ± 1.2 kg/m3 and the mass density (6509.9 kPa) was 962 ± 1.2 kg/m3. The mass density (6541 kPa) was 962.1 ± 1.2 kg/m3, the mass density (6572.6 kPa) was 962.1 ± 1.2 kg/m3 and the mass density (6608.9 kPa) was 962.2 ± 1.2 kg/m3. It also gave a mass density (6752.3 kPa) of 962.2 ± 1.2 kg/m3, a mass density (6777.5 kPa) of 962.2 ± 1.2 kg/m3 and a mass density (6802.4 kPa) of 962.2 ± 1.2 kg/m3. For the same compound, the mass density (6831.3 kPa) was 962.4 ± 1.2 kg/m3, the mass density (6854.2 kPa) was 962.2 ± 1.2 kg/m3 and the mass density (6882.2 kPa) was 962.3 ± 1.2 kg/m3. The mass density (6906 kPa) was 962.3 ± 1.2 kg/m3, the mass density (6930.2 kPa) was 962.3 ± 1.2 kg/m3 and the mass density (6953.5 kPa) was 962.4 ± 1.2 kg/m3. For the same compound, the mass density (6977.2 kPa) was 962.4 ± 1.2 kg/m3, the mass density (7001.2 kPa) was 962.4 ± 1.2 kg/m3 and the mass density (7029.7 kPa) was 962.4 ± 1.2 kg/m3. The mass density (7054.1 kPa) was 962.6 ± 1.2 kg/m3, the mass density (7078.2 kPa) was 962.6 ± 1.2 kg/m3 and the mass density (7102.1 kPa) was 962.5 ± 1.2 kg/m3. The mass density (7130.7 kPa) was 962.4 ± 1.2 kg/m3, the mass density (7154.9 kPa) was 962.5 ± 1.2 kg/m3 and the mass density (7179.4 kPa) was 962.5 ± 1.2 kg/m3. It also gave a mass density (7208.3 kPa) of 962.6 ± 1.2 kg/m3, a mass density (7233.7 kPa) of 962.6 ± 1.2 kg/m3 and a mass density (7260 kPa) of 962.6 ± 1.2 kg/m3. For the same compound, the mass density (7284.4 kPa) was 962.6 ± 1.2 kg/m3, the mass density (7309.2 kPa) was 962.7 ± 1.2 kg/m3 and the mass density (7338.6 kPa) was 962.7 ± 1.2 kg/m3. The mass density (7363.8 kPa) was 962.7 ± 1.2 kg/m3, the mass density (7388.9 kPa) was 962.6 ± 1.2 kg/m3 and the mass density (7418.5 kPa) was 962.7 ± 1.2 kg/m3. For the same compound, the mass density (7443.8 kPa) was 962.8 ± 1.2 kg/m3, the mass density (7469 kPa) was 962.8 ± 1.2 kg/m3 and the mass density (7499.3 kPa) was 962.8 ± 1.2 kg/m3. The mass density (7524.9 kPa) was 962.8 ± 1.2 kg/m3, the mass density (7767.9 kPa) was 962.9 ± 1.2 kg/m3 and the mass density (7799 kPa) was 963 ± 1.2 kg/m3. The mass density (7825.1 kPa) was 963.1 ± 1.2 kg/m3, the mass density (7851.3 kPa) was 962.9 ± 1.2 kg/m3 and the mass density (7877.7 kPa) was 963.1 ± 1.2 kg/m3. The mass density (7909.5 kPa) was 963.1 ± 1.2 kg/m3, the mass density (7936.7 kPa) was 963 ± 1.2 kg/m3 and the mass density (7963.5 kPa) was 963.3 ± 1.2 kg/m3. For the same compound, the mass density (7989.9 kPa) was 963.2 ± 1.2 kg/m3, the mass density (8021.4 kPa) was 963.1 ± 1.2 kg/m3 and the mass density (8047.9 kPa) was 963.1 ± 1.2 kg/m3. It also gave a mass density (8074.4 kPa) of 963.2 ± 1.2 kg/m3, a mass density (8105.7 kPa) of 963.3 ± 1.2 kg/m3 and a mass density (8131.9 kPa) of 963.3 ± 1.2 kg/m3. For the same compound, the mass density (8158.1 kPa) was 963.4 ± 1.2 kg/m3, the mass density (8189.5 kPa) was 963.3 ± 1.2 kg/m3 and the mass density (8215.6 kPa) was 963.3 ± 1.2 kg/m3. It also gave a mass density (8242.5 kPa) of 963.3 ± 1.2 kg/m3, a mass density (8269.2 kPa) of 963.4 ± 1.2 kg/m3 and a mass density (8301.8 kPa) of 963.4 ± 1.2 kg/m3. For the same compound, the mass density (8328.6 kPa) was 963.3 ± 1.2 kg/m3, the mass density (8355.6 kPa) was 963.5 ± 1.2 kg/m3 and the mass density (8382.4 kPa) was 963.3 ± 1.2 kg/m3. For the same compound, the mass density (8415.2 kPa) was 963.5 ± 1.2 kg/m3, the mass density (8442.4 kPa) was 963.4 ± 1.2 kg/m3 and the mass density (8469.3 kPa) was 963.5 ± 1.2 kg/m3. It also gave a mass density (8502.3 kPa) of 963.5 ± 1.2 kg/m3, a mass density (8646.3 kPa) of 963.7 ± 1.2 kg/m3 and a mass density (8736.5 kPa) of 963.7 ± 1.2 kg/m3. For the same compound, the mass density (8764.6 kPa) was 963.7 ± 1.2 kg/m3, the mass density (8798.5 kPa) was 963.7 ± 1.2 kg/m3 and the mass density (8827.2 kPa) was 963.9 ± 1.2 kg/m3. It also gave a mass density (8855.8 kPa) of 963.7 ± 1.2 kg/m3, a mass density (8890.1 kPa) of 963.9 ± 1.2 kg/m3 and a mass density (8919.1 kPa) of 963.8 ± 1.2 kg/m3. The mass density (8953.7 kPa) was 964 ± 1.2 kg/m3, the mass density (8982.7 kPa) was 963.9 ± 1.2 kg/m3 and the mass density (9012.2 kPa) was 963.9 ± 1.2 kg/m3. For the same compound, the mass density (9047.3 kPa) was 964 ± 1.2 kg/m3, the mass density (9077.3 kPa) was 963.9 ± 1.2 kg/m3 and the mass density (9107.5 kPa) was 964 ± 1.2 kg/m3. It also gave a mass density (9137.5 kPa) of 964 ± 1.2 kg/m3, a mass density (9173.3 kPa) of 964 ± 1.2 kg/m3 and a mass density (9362.4 kPa) of 964.1 ± 1.2 kg/m3. It also gave a mass density (9399.5 kPa) of 964.2 ± 1.2 kg/m3, a mass density (9430.7 kPa) of 964.2 ± 1.2 kg/m3 and a mass density (9462.9 kPa) of 964.2 ± 1.2 kg/m3. For the same compound, the mass density (9496.5 kPa) was 964.2 ± 1.2 kg/m3, the mass density (9527.5 kPa) was 964.2 ± 1.2 kg/m3 and the mass density (9565.2 kPa) was 964.4 ± 1.2 kg/m3. The mass density (9800.6 kPa) was 964.4 ± 1.2 kg/m3, the mass density (11008 kPa) was 965.5 ± 1.2 kg/m3 and the mass density (11050 kPa) was 965.3 ± 1.2 kg/m3. For the same compound, the mass density (11087 kPa) was 965.3 ± 1.2 kg/m3, the mass density (11123 kPa) was 965.3 ± 1.2 kg/m3 and the mass density (11159 kPa) was 965.4 ± 1.2 kg/m3. The mass density (11202 kPa) was 965.4 ± 1.2 kg/m3, the mass density (11238 kPa) was 965.5 ± 1.2 kg/m3 and the mass density (11274 kPa) was 965.6 ± 1.2 kg/m3. For the same compound, the mass density (11701 kPa) was 965.7 ± 1.2 kg/m3, the mass density (11736 kPa) was 965.9 ± 1.2 kg/m3 and the mass density (11778 kPa) was 965.9 ± 1.2 kg/m3. For the same compound, the mass density (11813 kPa) was 965.9 ± 1.2 kg/m3, the mass density (11848 kPa) was 966 ± 1.2 kg/m3 and the mass density (11889 kPa) was 965.9 ± 1.2 kg/m3. The mass density (11924 kPa) was 965.9 ± 1.2 kg/m3, the mass density (11958 kPa) was 966 ± 1.2 kg/m3 and the mass density (11998 kPa) was 966.1 ± 1.2 kg/m3. The mass density (12031 kPa) was 966.2 ± 1.2 kg/m3, the mass density (12159 kPa) was 966.1 ± 1.2 kg/m3 and the mass density (12190 kPa) was 966.2 ± 1.2 kg/m3. For the same compound, the mass density (12236 kPa) was 966.3 ± 1.2 kg/m3, the mass density (12264 kPa) was 966.2 ± 1.2 kg/m3 and the mass density (12287 kPa) was 966.4 ± 1.2 kg/m3. The mass density (12310 kPa) was 966.3 ± 1.2 kg/m3, the mass density (12337 kPa) was 966.4 ± 1.2 kg/m3 and the mass density (12361 kPa) was 966.4 ± 1.2 kg/m3. For the same compound, the mass density (12383 kPa) was 966.3 ± 1.2 kg/m3, the mass density (12808 kPa) was 966.7 ± 1.2 kg/m3 and the mass density (12827 kPa) was 966.7 ± 1.2 kg/m3. For the same compound, the mass density (12842 kPa) was 966.7 ± 1.2 kg/m3, the mass density (12857 kPa) was 966.7 ± 1.2 kg/m3 and the mass density (12873 kPa) was 966.7 ± 1.2 kg/m3. The mass density (12892 kPa) was 966.7 ± 1.2 kg/m3, the mass density (12909 kPa) was 966.7 ± 1.2 kg/m3 and the mass density (12927 kPa) was 966.8 ± 1.2 kg/m3. The mass density (12989 kPa) was 966.8 ± 1.2 kg/m3, the mass density (13011 kPa) was 966.7 ± 1.2 kg/m3 and the mass density (13039 kPa) was 966.9 ± 1.2 kg/m3. It also gave a mass density (13064 kPa) of 967 ± 1.2 kg/m3.
